Measured values taken from patent US9469836B2, “Antifungal metabolites from fungal endophytes of Pinus strobus” (J.D. IRVING, LIMITED, priority 2011, dated 2016).

Columns and labels:
Type in all cases: cell-based
Microbotryum violaceum [1] = experiment: Quantitative cell density test, OD 600 nm, 96 well microplates, rust; details: M. violaceum, 48 hours; 10 μL of 1 mg/mL (˜4 μM) compound in DMSO added to 200 μL culture; ANOVA p<0.000
From the text: (§1) The results of the Oxford disc assay using the isolated compounds confirmed these observations for both S. cerevisae and Microbotryum violaceum. A quantitative test protocol based on cell density using OD measurements at 600 nm in 96 well microplates was employed.
(§2) Disc diffusion assays with the extracts were employed for preliminary antifungal testing using Saccharomyces cerevisae for all strains (Sumarah et al., 2008b). […] The individual compounds were further tested using these two fungi in 96 well microplates where 10 μL of 1 mg/mL (˜4 μM) of each compound in DMSO was added to 200 μL of the above macerated cultures. The plates were incubated at room temperature with constant shaking and were measured at 600 nm. The antifungal compound nystatin was used as the positive control for all experiments.

Saccharomyces cerevisae [2] = experiment: Disc diffusion (Oxford) antifungal assay, yeast; details: isolated compounds
Procedure: (§3) The term “toxicity” as used herein with respect to the effect of a toxin compound or toxigenic endophyte strain on a pest means inhibited or reduced growth and/or pest death in the presence of the toxin compound or toxigenic endophyte compared to a control. For example, where toxicity is assessed using a disc diffusion assay, which uses a disc comprising a compound, which is placed on a microbial lawn, the compound is a toxic compound if it results in a zone of clearing around the disc.
(§4) From these strains the new aliphatic polyketide compound 1 and three related sesquiterpenes (IIa), (IIb) and (III) were isolated and characterized (see FIG. 1). Compound (III) is reported for the first time as a natural product and the E/Z conformational isomers (IIa) and (IIb) are reported as new structures (see FIG. 1). Additionally, the three known macrolides; pyrenophorol (IV), dihydropyrenophorin (V) and pyrenophorin (VI) were isolated and identified. Their structures were elucidated by spectroscopic analyses including 2D NMR, HRMS and by comparison to literature data where available.
as §1, §2

Microbotryum violaceum [3] = experiment: Disc diffusion (Oxford) antifungal assay, rust; details: isolated compounds, rust grown on MYP
Procedure: as §3, §4, §1, §2

Saccharomyces cerevisae [4] = experiment: Quantitative cell density test, OD 600 nm, 96 well microplates, yeast; details: for reduction in cell density vs controls (OD 600 nm): S. cerevisae, 24 hours, 10 μL of 1 mg/mL (˜4 μM) compound in DMSO added to 200 μL culture, ANOVA p<0.000
From the text: as §1, §2

Structure (SMILES): COC(=O)/C=C\C=C(\C=O)C(OC(C)=O)C(C)=O (stereo not shown) [Compound 1, (2Z,4E)-methyl-6-acetoxy-5-formyl-7-oxo-octa-2,4-dienoate]
- reduction in cell density vs controls (OD 600 nm) (Microbotryum violaceum [1]): Statistically-significant reductions in cell density
- antifungal activity against Saccharomyces cerevisae (Saccharomyces cerevisae [2]): antifungal activity
- antifungal activity against Microbotryum violaceum (Microbotryum violaceum [3]): antifungal activity
- antifungal activity against Microbotryum violaceum (Microbotryum violaceum [3]; listed as (2E,4Z)-methyl-6-acetoxy-5-acetyl-7-oxohepta-2,4-dienoate): antifungal activity
- reduction in cell density vs controls (OD 600 nm) (Saccharomyces cerevisae [4]): Statistically-significant reductions in cell density

Structure (SMILES): CC1(C)CCCC(C)(c2ccc(CO)cc2O)O1 (stereo not shown) [Compound (III), 5-(hydroxymethyl)-2-(2′,6′,6′-trimethyltetrahydro-2H-pyran-2-yl)phenol]
- reduction in cell density vs controls (OD 600 nm) (Microbotryum violaceum [1]): Statistically-significant reductions in cell density
- antifungal activity against Saccharomyces cerevisae (Saccharomyces cerevisae [2]): antifungal activity
- antifungal activity against Microbotryum violaceum (Microbotryum violaceum [3]): antifungal activity
- antifungal activity against Microbotryum violaceum (Microbotryum violaceum [3]; listed as 2): antifungal activity
- reduction in cell density vs controls (OD 600 nm) (Saccharomyces cerevisae [4]): Statistically-significant reductions in cell density
- rank of antifungal effect among compounds 1, (III) and (IV) (Saccharomyces cerevisae [4]; based on results of the response at 24 h): most antifungal

Structure (SMILES): C[C@@H]1CC[C@H](O)/C=C/C(=O)O[C@H](C)CC[C@H](O)/C=C/C(=O)O1 [Compound (IV), pyrenophorol]
- reduction in cell density vs controls (OD 600 nm) (Microbotryum violaceum [1]): Statistically-significant reductions in cell density
- antifungal activity against Saccharomyces cerevisae (Saccharomyces cerevisae [2]): antifungal activity
- antifungal activity against Microbotryum violaceum (Microbotryum violaceum [3]): antifungal activity
- antifungal activity against Microbotryum violaceum (Microbotryum violaceum [3]; listed as 5): antifungal activity
- reduction in cell density vs controls (OD 600 nm) (Saccharomyces cerevisae [4]): Statistically-significant reductions in cell density
